Measured values from ChEMBL document CHEMBL1781930, “Facile transformation of Biginelli pyrimidin-2(1H)-ones to pyrimidines. In vitro evaluation as inhibitors of Mycobacterium tuberculosis and modulators of cytostatic activity” (Eur J Med Chem, 2011).
Values after ≈ are worked out from the molar mass of the structure shown. Active and inactive are the calls of the source. The calls are words filed in the database; no cut-off is given here.

How the values were obtained:
[1] = test system: Human immunodeficiency virus; test: Antiviral activity against HIV at subtoxic concentration; format: functional, organism-based
[2] = test system: Mycobacterium tuberculosis; test: Antimycobacterial activity against Mycobacterium tuberculosis H37Rv ATCC 27294 after 7 days by microplate alamar blue assay; format: functional; details: H37Rv ATCC 27294, 168 h
HeLa = test: Cytostatic activity against human HeLa cells assessed as inhibition of cell proliferation after 3 days by particle counter assay; format: functional, cell-based; details: 72 h
L1210 = test: Cytostatic activity against mouse L1210 cells assessed as inhibition of cell proliferation after 2 days by particle counter assay; format: functional, cell-based; details: L1210, 48 h
CCRF-CEM = test: Cytostatic activity against human CEM cells assessed as inhibition of cell proliferation after 3 days by particle counter assay; format: functional, cell-based; details: 72 h
FM3A = test: Cytostatic activity against mouse FM3A cells assessed as inhibition of cell proliferation after 2 days by particle counter assay; format: functional, cell-based; details: 48 h
[3] = Cytotoxicity against cat CRFK cells; format: cell-based, Felis catus
[4] = Cytotoxicity against human embryonic lung cells; format: cell-based
[5] = test system: Mycobacterium tuberculosis; test: Antimycobacterial activity against Mycobacterium tuberculosis H37Rv ATCC 27294 at […] after 7 days by microplate alamar blue assay; format: functional; details: H37Rv ATCC 27294, 168 h

## CCOC(=O)c1c(C)nc(Cl)nc1-c1ccccc1
[1]
  Activity: inactive

## O=[N+]([O-])c1cn2c(n1)OC[C@@H](OCc1ccc(OC(F)(F)F)cc1)C2 [PRETOMANID]
[2]
  MIC: 0.48 µM (≈ 0.172 µg/mL)

## CCOC(=O)c1cnc(NCc2ccccc2)nc1C
HeLa
  IC50: 147 µM
L1210
  IC50: 378 µM
CCRF-CEM
  IC50: 480 µM
[1]
  Activity: inactive
FM3A
  IC50: 306 µM

## CCOC(=O)c1c(C)nc(NCCc2c[nH]c3ccccc23)nc1-c1ccccc1
HeLa
  IC50: 23 µM
L1210
  IC50: 28 µM
CCRF-CEM
  IC50: 31 µM
[1]
  Activity: inactive
FM3A
  IC50: 34 µM

## COC(=O)c1c(C)nc(NCc2ccccc2)nc1-c1ccccc1
[3]
  MCC: 4 µg/mL
[4]
  MCC: 4 µg/mL

## COC(=O)c1c(C)nc(Cl)nc1-c1ccccc1
[1]
  Activity: inactive

## COc1c(N2C[C@@H]3CCCN[C@@H]3C2)c(F)cc2c(=O)c(C(=O)O)cn(C3CC3)c12 [MOXIFLOXACIN]
[2]
  MIC: 0.47 µM (≈ 0.189 µg/mL)

## CCOC(=O)c1c(C)nc(N2CCOCC2)nc1-c1ccccc1
HeLa
  IC50: ≥ 500 µM
L1210
  IC50: > 500 µM
CCRF-CEM
  IC50: ≥ 500 µM
[5]
  inhibition at […]: 96%
[2]
  MIC: 125 µM (≈ 41 µg/mL)
[1]
  Activity: inactive
FM3A
  IC50: > 500 µM

## NNC(=O)c1ccncc1 [ISONIAZID]
[2]
  MIC: 0.12 µM (≈ 0.0165 µg/mL)
